In patent publication US20190084909A1, “F[…] COMPOUNDS, COMPOSITIONS AND USES THEREOF” (YISSUM RESEARCH DEVELOPMENT COMPANY OF THE HEBREW …, priority 2015, published 2019):
“And” between values parts separate entries of the source, which are not always exact repeats. Identical values can stand only once.

Key:
[1] = test system: Male Swiss mice; test: Pre-pulse inhibition (PPI), impairment induced by amphetamine; type: in vivo
Description: (§1) Male Swiss mice (25-30 g) originated from the Central Animal Farm of the School of Medicine of Ribeirão Preto (FMRP-USP) were maintained in groups of five animals per box (41×33×17 cm) in a temperature controlled room (24±2° C.) with a 12×12 h light-dark cycle. They received water and food ad libitum throughout the study period.
Cannabidiol (CBD; THC Pharm, 15-60 mg/kg) and HU-485 (1-10 mg/kg) were administered intraperitoneally (ip). All drugs were dissolved in 2% Tween 80 in sterile saline.
The PPI test was conducted simultaneously in two identical startle response systems (Med Associates, USA). A continuous acoustic signal provided a background white noise level of 65 dB. The pulse consists of a 105 dB white noise burst with a rise/decay of 5 ms and duration of 20 ms. The pre-pulse comprised pure 7000 Hz tones, 10 ms duration, with intensities set at 80, 85, and 90 dB. The setups were daily calibrated to ensure equal sensitivity throughout the experiments. Calibration was performed by adjusting the gain on the load cell amplifier to 150 arbitrary units (AU) at a standard weight appropriated for a 40 g mice. The limits of the load cell were −2047 to +2047 AU. Thirty min after the injection of the tested compounds mice received i.p. injections of amphetamine 10 mg/kg or vehicle. […] The first 10 pulse-alone trials allow for the within-session habituation to the startle stimulus and are not considered for PPI statistical analysis. The test consisted of 64 pseudo-random trials divided into eight different groups presented with an inter-stimulus interval of 30 s, and consisting of pulse alone (105 dB), pre-pulse alone (80, 85, or 90 dB), pre-pulse+pulse with 100 ms interval between pre-pulse and pulse, and no stimulus presented. […] Mean acoustic startle response to pulse-alone (P) trials and each pre-pulse+pulse (PP+P) trial was recorded for each subject. PPI was calculated by expressing the pre-pulse+pulse startle amplitude as a percentage of decrease from pulse-alone startle amplitude, according to the following formula: % PPI=100−[100×(PP+P/P)]. This transformation reduces statistical variability attributable to differences between animals and it is a direct PPI measure. Antipsychotic drugs typically attenuate PPI impairment induced by amphetamine.
Results were analyzed by one-way ANOVA followed by Duncan test. […]
Animals received a first injection of vehicle (V) or CBD, followed 30 min later, by vehicle (n=9) or amphetamine 10 mg/kg (V+amphetamine group=9 animals). PPI was evaluated at three-stimuli intensity (90, 85 and 80 dB). […]
Animals received a first injection of vehicle (V) or HU-485, followed 30 min later, by vehicle (n=7) or amphetamine 10 mg/kg (V+amphetamine group=7 animals). PPI was evaluated at three-stimuli intensity (90, 85 and 80 dB). […]

[2] = test system: Male Wistar rats; conditions: intra-dlPAG; doses tested 15, 30 and 60 nmol; cited from earlier work
[3] = test system: Swiss mice; conditions: i.p., doses tested 3, 10, 30 and 100 mg/kg; cited from earlier work
[4] = test system: rats; conditions: Vogel punished licking test, intra-dlPAG; cited from earlier work
[5] = test system: Swiss mice; conditions: cited from earlier work
[6] = test system: Swiss mice; conditions: single administration i.p., MK801 0.3-1 mg/kg i.p.; 1 and 15 mg/kg also tested; cited from earlier work
[7] = test system: Swiss mice; test: Elevated plus maze (EPM), mice, HU-474 IP; type: in vivo
Description: as §1, with “Male Wistar rats (220-250 g) and” for “Male”, “Ribeirio” for “Ribeirão”
(§2) HU-474 (1, 3 and 10 mg/kg) was administered intraperitoneally (IP) in mice at 10 mL/kg volume and HU-475 (1, 3 and 10 nmol) was injected intra-dIPAG in rats. Both drugs were dissolved in 2% Tween 80 in sterile saline.
The wood EPM used to perform the experiments was located in a sound attenuated and temperature controlled room (23° C.), with one incandescent light (40 W) placed 1.3 m away from the maze. The apparatus consists of two opposing open arms (50×10 cm) without side walls, perpendicular to two enclosed arms (50×10×40 cm), with a central platform common to all arms (10×10 cm). The apparatus is elevated 50 cm above the ground and has an acrylic edge (1 cm) in the open arms to prevent animal falls. In this model, rodents naturally avoid the open arms, exploring more extensively the enclosed arms. Anxiolytic drugs increase the exploration in open arms without affecting the number of enclosed arms entries, which is usually used to assess general exploratory activity (File, 1992). Ten minutes after the last injection the animal was placed on the central platform of the maze with the head facing one of the enclosed arms. The test lasted for 5 min and was recorded. The animal behavior was analyzed with the help of the Anymaze Software (version 4.5, Stoelting). This software indicates the location of the animal in the EPM and automatically calculates the percentage of entries (Peo) and time spent in the open arms (Pto) and the number of entries in the enclosed arms (EA). Animals were only considered to enter an open or enclosed arm when 90% of their bodies were inside the region. All experiments were performed in the morning period (8 to 12 a.m.).
Similar to 5.1 except that the each arm measured 30×5 cm. 5.3 Forced Swimming Test (FST) Mice
(§3) Results from HU-475 and HU-474 tests in the elevated plus maze were analyzed by Kruskal-Wallis followed by Mann-Whitney tests. Data from animals tested in the FST were analyzed by one-way ANOVA followed by Duncan test.

[8] = test system: Swiss mice; test: Forced swimming test (FST), mice; type: in vivo
Description: as §1, with “Male Wistar rats (220-250 g) and” for “Male”, “Ribeirio” for “Ribeirão”
as §2
Animals were individually submitted for 6 min of forced swimming in glass cylinders (height 25 cm, diameter 17 cm) containing 10 cm of water. The mice were videotaped and the immobility time (characterized by slow movements necessary to avoid drowning) was measured during the last 4-min period. The water was changed after each trial to maintain the temperature at 23-25° C. and to prevent the influence of alarm substances (Zanelati et al., 2010).
as §3

[9] = test system: male C57BL/6J mice; test: Pre-pulse inhibition (PPI) test, impairment induced by MK-801; type: in vivo
Description: The experiments were performed using male C57BL/6J mice weighting 25-30 g. The animals were maintained throughout the experimental period under standard laboratory conditions with free access to water and food will be used.
HU-474 (3 and 10 mg/kg) was dissolved in 2% Tween 80 in sterile saline (vehicle). MK-801 (a NMDA antagonist, 0.5 mg/kg, Sigma, USA) was dissolved in saline. Drugs were administered intraperitoneally (ip) at 10 mL/kg volume.
The animals (n=9-11/group) received i.p. administration of vehicle or HU-474 (3 and 10 mg/kg) followed, 30 minutes later, by saline or MK-801 (0.5 mg/kg), resulting in the following experimental groups: vehicle+saline, HU 10+saline, vehicle+MK-801, HU 3+MK-801, HU 10+MK-801. The animals were submitted to PPI test 20 minutes after the last drug injection.
The PPI was carried out in three consecutive steps. The first consisted of an acclimation period during which no stimulus was presented. In the second step, called habituation, only the stimulus that triggers the startle (pulse) was presented. […] During this session the stimuli are presented at regular intervals of 30 s, 8 presentations of each stimulus. The percentage of the PPI was expressed as the percent inhibition of startle amplitude in response to multiple presentations of the pulse preceded by pre-pulse (PP), depending on the amplitude of the response only to the pulse (P), which was obtained in the following formula: % PPI=100−((PP/P)×100). Using this formula 0% represents no difference between the amplitude of startle triggered only by the pulse or pulse preceded by the pre-pulse and therefore no pre-pulse inhibition. This transformation was performed in order to reduce the statistical variability attributable to differences between animals and represents a direct measure of pre-pulse inhibition (Issy et al., 2009).
The percentage of PPI was analyzed by repeated measures MANOVA with the treatment as the independent factor and the prepulse intensity (80, 85 and 90 dB) as repeated measure.

[10] = test system: Male Wistar rats; test: Elevated plus maze (EPM), rats, microinjection into the dorsolateral periaqueductal gray; type: in vivo
Description: as §1, with “Male Wistar rats (220-250 g) and” for “Male”, “Ribeirio” for “Ribeirão”
as §2
Rats were submitted to a stereotaxic surgery to unilaterally implant cannulae (9.0 mm, 0.6 mm OD) into the dIPAG (coordinates: lateral: −1.9 mm; depth: −4.3 mm; angle: 16° from lambda; Paxinos and Watson, 2005), fixed to the skull with acrylic cement (Campos & Guimarães, 2008). The surgeries were performed under anesthesia with tribromoethanol 2.5% (10.0 mL/kg, IP) and immediately after the animals received Veterinary Pentabiotic (0.2 mL, intramuscular) and analgesic (Banamine, 1.0 mL/kg, subcutaneous) to prevent infections and decrease post-surgical pain. After surgery, animals underwent a recovery period of 5-7 days before the behavioral tests.
Animals received unilateral microinjections of vehicle or HU-475 into the dIPAG before being submitted to the behavioral tests. To this aim, microneedles (10.0 mm, 0.3 mm OD), connected to a microsyringe (Hamilton, USA, […]) through a segment of polyethylene (P10) were inserted into the guide cannulae. Solutions were injected with the help of an infusion pump (KD Scientific, USA). A 0.2 μL solution volume was injected over 1 min. After the injections, the needles remained inserted in the cannulae for additional 30 seconds to prevent drug reflux (Campos & Guimarães, 2008).
The wood EPM used to perform the experiments was located in a sound attenuated and temperature controlled room (23° C.), with one incandescent light (40 W) placed 1.3 m away from the maze. The apparatus consists of two opposing open arms (50×10 cm) without side walls, perpendicular to two enclosed arms (50×10×40 cm), with a central platform common to all arms (10×10 cm). The apparatus is elevated 50 cm above the ground and has an acrylic edge (1 cm) in the open arms to prevent animal falls. In this model, rodents naturally avoid the open arms, exploring more extensively the enclosed arms. […] The test lasted for 5 min and was recorded. The animal behavior was analyzed with the help of the Anymaze Software (version 4.5, Stoelting). […]
as §3

Structure (SMILES): C=C(C)[C@@H]1CCC(C)=C[C@H]1c1c(O)cc(CCCCC)cc1O [CBD, Cannabidiol]
- effect on PPI impairment by amphetamine ([1]; CBD 30 and 60 mg/kg ip, intensities of 85 and 80 dB, amphetamine 10 mg/kg): attenuated
- effective dose (anxiolytic-like effect in the EPM) [2]: 30 nmol
- dose producing an antidepressant-like effect in the forced swimming test [3]: 30 mg/kg
- dose producing an anxiolytic-like effect [4]: 30 nmol
- dose able to attenuate the hyper-locomotion induced by MK801 [5]: 30 mg/kg
- effective doses, hyperlocomotion induced by d-amphetamine [5]: 30 mg/kg and 60 mg/kg
- effective dose attenuating PPI deficits caused by MK801 [6]: 5 mg/kg

Structure (SMILES): C=C(C)[C@@H]1CCC(C)=CC1c1c(O)cc(CCCCC)c(F)c1O (stereo partly shown) [HU-474, 4′-fluoro-cannabidiol]
- number of enclosed arms entries ([7]; 1, 3 and 10 mg/kg IP): No effect
- percentage of entries onto the open arms ([7]; 1, 3 and 10 mg/kg IP): No effect
- percentage of time spent in the open arms ([7]; 1, 3 and 10 mg/kg IP, vs vehicle, X2=8.13, p<0.05): increased
- effective dose (anxiolytic-like effect in the EPM) ([7]; systemic administration, bell-shaped dose-response curve): 3 mg/kg
- immobility time in the FST ([8]; dose of 3 mg/kg IP (printed 3 m/kg), p=0.019): decreased
- immobility time in the FST ([8]; doses of 1 and 10 mg/kg IP): ineffective
- potency relative to CBD ([8]; forced swimming test, comparison of effective doses): 10 times
- effect on MK-801 PPI disruption ([9]; 10 mg/kg i.p., MK-801 0.5 mg/kg, all prepulse intensities (80, 85, 90 dB), P<0.05): attenuated
- effective dose against MK-801 PPI disruption ([9]; i.p., 3 and 10 mg/kg tested): 10 mg/kg

Structure (SMILES): C=C(CF)[C@@H]1CCC(C)=CC1c1c(OC(C)=O)cc(CCCCC)cc1OC(C)=O (stereo partly shown) [HU-475, 10-fluoro-cannabidiol diacetate]
- number of enclosed arm entries ([10]; 1, 3 and 10 nmol intra-dlPAG): No effect
- percentage of time spent in the open arms ([10]; 1, 3 and 10 nmol intra-dlPAG, vs vehicle, X2=8.5, p=0.075 (trend)): tended to do the same
- percentage of entries onto the open arms ([10]; 1, 3 and 10 nmol intra-dlPAG, vs vehicle, X2=9.66, p<0.05): increased
- potency relative to CBD ([10]; EPM, intra-dlPAG injection, comparison of effective doses): 10 times

Structure (SMILES): C[C@]12N[C@H](Cc3ccccc31)c1ccccc12 [MK-801, reference compound]
- effect on PPI ([9]; MK-801 0.5 mg/kg i.p., all prepulse intensities, P<0.05): significant PPI disruption

Structure (SMILES): CC(N)Cc1ccccc1 (stereo not shown) [amphetamine, reference compound]
- effect on PPI ([1]; amphetamine 10 mg/kg i.p., all intensities (90, 85, 80 dB), Duncan p<0.05): impaired PPI
